Measurements: publication PMC3113527 (Journal of agricultural and food chemistry, 2011)

Assays:
PLA2 = settings: at 2 mM; cited from earlier work
[1] = target: secreted phospholipase A2 (PLA2) (Apis mellifera, UniProt P00630); assay: biochemical; settings: read-out: Inhibition of PLA2
[2] = target: T1, Lipase from porcine pancreas (PL) (Sus scrofa, UniProt P00591); assay: Pancreatic lipase inhibition assay in vitro; assay type: biochemical; settings: read-out: Inhibition of PL
T1 sequence (P00591 1-450): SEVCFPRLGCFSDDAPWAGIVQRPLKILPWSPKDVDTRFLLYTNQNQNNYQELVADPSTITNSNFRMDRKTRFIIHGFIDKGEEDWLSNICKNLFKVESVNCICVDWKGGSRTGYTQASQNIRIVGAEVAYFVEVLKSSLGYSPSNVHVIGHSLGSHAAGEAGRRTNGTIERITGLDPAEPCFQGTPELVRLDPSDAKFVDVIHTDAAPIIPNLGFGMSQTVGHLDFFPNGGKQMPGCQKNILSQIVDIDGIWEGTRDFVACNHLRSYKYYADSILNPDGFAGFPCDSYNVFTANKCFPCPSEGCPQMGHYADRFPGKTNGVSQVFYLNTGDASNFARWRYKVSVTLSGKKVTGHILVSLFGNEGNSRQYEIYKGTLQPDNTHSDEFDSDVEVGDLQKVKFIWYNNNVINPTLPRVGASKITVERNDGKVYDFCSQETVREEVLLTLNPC

secreted phospholipase A2 (PLA2), sequence (P00630 34-167 limits assumed): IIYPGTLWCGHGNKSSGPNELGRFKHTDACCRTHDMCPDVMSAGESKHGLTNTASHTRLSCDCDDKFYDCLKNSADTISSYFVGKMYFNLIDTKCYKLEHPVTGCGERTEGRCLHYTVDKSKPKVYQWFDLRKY

O=C(O[C@@H]1Cc2c(O)cc(O)cc2O[C@@H]1c1cc(O)c(O)c(O)c1)c1cc(O)c(O)c(O)c1 [EGCG]
Inhibition of PLA2 in vitro (PLA2): 64.9%

Oc1cc(O)c2c(c1)O[C@H](c1ccc(O)c(O)c1)[C@H](O)C2 [EC, (−)-epicatechin]
inhibition at 100 µM [1]: 4.5% | inhibition at 20 µM [2]: 15%

CCCCCCCCCCC[C@@H](C[C@@H]1OC(=O)[C@H]1CCCCCC)OC(=O)[C@H](CC(C)C)NC=O [Orlistat]
inhibition at 10 µM [2]: 72%
